Source: patent publication US12157713B2, “Conjugated oligoelectrolytes as antimicrobial agents” (Nanyang Technological University, priority 2018, dated 2024)

How the values were obtained:
human erythrocytes = assay: Haemolysis assay; format: cell-based
Description: 1 mL of mammalian blood, collected from a healthy donor, was mixed with 9 mL of PBS and centrifuged at 1,000 rpm for 5 min. Red blood cell pellet was collected and subsequently washed with PBS three times and diluted to a final concentration of 5% v/v. The various COEs were dissolved in PBS and two folds serial diluted in a 96-well microplate. 50 μL of red blood cell stock was mixed with 50 μL of COE solution in each well and incubated for 1 hr at 37° C. under shaking. The microplate was centrifuged at 1,000 rpm for 10 min. 80 μL aliquots of the supernatant were then transferred to a new 96-well microplate and diluted with another 80 μL of PBS. Haemolytic activity was calculated by measuring absorbance at 540 nm using a 96-well plate spectrophotometer. Triton X-100 (0.1% in PBS), which is able to lyse red blood cells, completely was used as positive control, while PBS was used as negative control. The haemolysis percentage was calculated using the following formula:
[formula] where Op is the absorbance of the COE-treated sample, Ob is the absorbance of negative control and Ot is the absorbance of positive control. Results and Discussions
The selectivity of COEs towards bacteria or mammalian cells can be quantified using the ratio between the concentrations leading to 50% lysis of human erythrocytes (HC50) and the MIC value.

[1] = Aqueous solubility (further tests); format: physicochemical; conditions: aqueous medium (not further specified)
[2] = test system: Staphylococcus aureus 25923; assay: MIC against S. aureus 25923; format: cell-based
Description: The respective minimum inhibition concentration (MIC) of each COE molecule was determined using a broth microdilution method. Briefly, COEs were diluted via a 2-fold dilution series in 100 μL of either Muller Hinton Broth (MHB) for E. coli and S. aureus or Brain Heart Infusion Broth (BHI) for E. faecalis in a 96-well plate to achieve the desired final concentration. Subsequently, each well was inoculated with 100 μL of 1×10^6 colony forming units (CFU) mL^−1 of the respective microorganism in MHB for E. coli or BHI for E. faecalis to achieve an inoculum density of 5×10^5 CFU mL^−1. The plates were then incubated at 37° C. with shaking (200 rpm) for 18 hrs. […] The results were obtained in triplicate.
The antimicrobial effects of COE-D62N and COE-D82N were also tested on the Gram-positive Staphylococcus aureus 25923 and Methicillin-resistant Staphylococcus aureus(MRSA BAA-40), in comparison with vancomycin (FIG. 5b).

## CN(C)CC[N+](C)(C)CCCCCCOc1ccc(/C=C/c2ccc(OCCCCCC[N+](C)(C)CCN(C)C)cc2)cc1 [COE-D62N]
Human erythrocytes
  Toxicity towards erythrocytes: non-toxic
[1]
  solubility: > 200 µM
[2]
  MIC: 1 µg/mL
